The nature of data set [1]: Brain-targeting of GUNW-3 DiR micelles, in-vivo whole body fluorescence imaging.
Data set [2] concerns NCI-H226 cells (human lung cancer cells). Put plainly: In-vitro cytotoxicity by the MTT assay, NCI-H226 cells. The data set is classed as cell-based. For orientation: Formazan colour is commonly taken as a measure of viable cells.
Data set [3] is described as follows: Chemical stability of GUNW-3 in methanol-ammonium aqueous solution. The data set is classed as physicochemical. The note with it: methanol-ammonium aqueous solution (1:1), pH 10.8, 4° C., checked 7 days. How it is done: The stability of GUNW-3 in a methanol-ammonium aqueous solution (1:1) at pH 10.8, the pH GUNW-3 was soluble, was checked continuously for 7 days at 4° C. (FIG. 4). […] However, it started to decompose quickly after 3 days.

Data set [4] concerns CV-1 cells (monkey kidney cells). Description: In-vitro cytotoxicity by the MTT assay, CV-1 cells. The data set is classed as cell-based. Particulars: Primates.

The structures appear in SMILES notation. pIC50: −log10 of the molar value.

Broadly, the pIC50 is −log10 of the IC50, conventionally taken in molar units.

For `CC(C)CCCC(C)C1CCC2C3CC=C4CC(OCCOCCOC(=O)CCSCC(NC(=O)CCC(N)C(=O)O)C(=O)NCC(=O)O)CC[C@@]4(C)C3CC[C@@]12C` (stereo partly drawn) [GUNW-3], the distribution in liver result in data set [1] (when delivered in micelles) is “low distribution in liver”. The values for the pIC50 in data set [2] and in data set [4] were 3.33 and 3.19, respectively. In data set [3], the “stability of GUNW-3” value is recorded as “stable in the first 3 days”.

Take `CCCCCCCCCCCCCCCCCCN1/C(=C/C=C/C=C/C=C/C2=[N+](CCCCCCCCCCCCCCCCCC)c3ccccc3C2(C)C)C(C)(C)c2ccccc21.[I-]` [free DiR]: in data set [1] (mice, lateral image at 1 h), the “presence in the spinal cord” value is reported as “not observed”. Moreover, the “brain distribution (lateral images)” value in data set [1] (mice, tail vein injection, 5 μg DiR, lateral images at 1 h) is given as “no significant brain distribution”.

These data come from US20200048305A1, “GLUTATHIONE-CHOLESTEROL DERIVATIVES AS BRAIN TARGETING AGENTS” (South Dakota Board of Regents, priority 2018, published 2020).
